Measured values from patent publication US9371295B2, “Compounds for use in the treatment of disorders that are ameliorated by inhibition of HDAC” (IRBM—Science Park S.p.A., priority 2012, dated 2016).

Legend:
[1] = biological target: T1, HDAC1 (Homo sapiens, UniProt Q13547); experiment: HDAC1 assay (Fluor-de-Lys fluorescent deacetylase assay); type: biochemical; details: read-out: hHDAC IC50
T1 construct: made in house
Summary of the method: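 Serially diluted compounds were pre-incubated with purified FLAG-tagged HDAC1 (1-2 nM final; from transfected HeLa cells) or HeLa nuclear extract, then given the Fluor-de-Lys acetyl-lysine substrate/developer; deacetylation read as fluorescence. Reactions were stopped with TSA (3 uM final).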

[2] = system: human γ-globin promoter (EGFP reporter) in K562 cells; experiment: HbF activation assay on K562 (EGFP/RFP reporter model system for screening of inducers of fetal hemoglobin); type: cell-based; details: 60 hours
Summary of the method: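 K562 cells stably carrying EGFP under the human γ-globin promoter and far-red FP under the β-globin promoter, with the LCR, were seeded at 1000 cells/well. Cells were exposed to compounds (0.25% DMSO final) for 60 h at 37 °C. Fluorescence was read by plate cytometry, normalized to Hoechst nuclei count, which also indicated proliferation or death.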

[3] = Intrinsic clearance in pooled human liver microsomes; type: in vitro ADME; details: pH 7.4
[4] = Mouse in vivo pharmacokinetics, oral dose; details: plasma
Method: Compounds of the invention were evaluated in in vitro and in vivo pharmacokinetic studies.

[5] = Intrinsic clearance in pooled rat liver microsomes; type: in vitro ADME; details: pH 7.4
Method: Assays were performed in presence of 0.5 mg/ml of microsomal protein, with a NADPH-generating system (1 mM NADP, 2.5 mM glucose 6-phosphate and 2 U/ml glucose 6-phosphate dehydrogenase) in 100 mM potassium phosphate buffer containing 3.3 mM MgCl2 (pH 7.4). Tested compounds were stored in 10 mM DMSO solution and incubated at 1 μM final concentration (final DMSO concentration in incubation less than 0.1%). Microsomes and substrates were preincubated at 37° C. for 5 min and then the enzymatic reactions were initiated by the addition of cofactors and incubated at 37° C. for up to 90 min. Incubations were terminated by the addition of an equivalent volume of cold acetonitrile containing I.S. Control incubations, where the substrate was incubated in the same buffer system containing pRLM without the NADPH-generating system, were also run.

[6] = Intrinsic clearance in pooled mouse liver microsomes; type: in vitro ADME; details: pH 7.4

T1 sequence (Q13547 whole entry): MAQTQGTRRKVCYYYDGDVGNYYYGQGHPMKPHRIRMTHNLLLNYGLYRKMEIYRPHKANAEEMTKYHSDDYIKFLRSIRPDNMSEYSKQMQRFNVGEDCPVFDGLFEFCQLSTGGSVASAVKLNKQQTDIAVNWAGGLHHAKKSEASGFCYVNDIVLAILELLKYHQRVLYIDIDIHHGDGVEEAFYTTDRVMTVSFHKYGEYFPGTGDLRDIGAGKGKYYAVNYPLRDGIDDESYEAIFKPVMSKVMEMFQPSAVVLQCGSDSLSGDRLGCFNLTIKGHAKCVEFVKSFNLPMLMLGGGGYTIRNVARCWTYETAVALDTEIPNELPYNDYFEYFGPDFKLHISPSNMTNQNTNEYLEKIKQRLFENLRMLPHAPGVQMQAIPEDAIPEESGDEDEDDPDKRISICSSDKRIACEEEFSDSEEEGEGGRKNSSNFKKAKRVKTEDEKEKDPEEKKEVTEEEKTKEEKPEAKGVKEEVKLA

`CCC(=O)CCCCC[C@H](NC(=O)c1cnc(CN2CCCC2)s1)c1ncc(-c2cc3ccccc3nc2OC)o1` [Compound 82, (S)-N-(1-(5-(2-methoxyquinolin-3-yl)oxazol-2-yl)-7-oxononyl)-2-(pyrrolidin-1-ylmethyl)thiazole-5-carboxamide] gave an IC50 [1] of less than 100 nM and an EC50 [2] of 100 to 1000 nM.
`CCC(=O)CCCCC[C@H](NC(=O)C(=O)N1CCN(C)CC1)c1ncc(-c2cc3ccccc3nc2OC)o1` [Compound 37, (S)-N-(1-(5-(2-methoxyquinolin-3-yl)oxazol-2-yl)-7-oxononyl)-2-(4-methylpiperazin-1-yl)-2-oxoacetamide] showed an IC50 [1] of less than 100 nM and an EC50 [2] greater than 1000 nM.
`CCC(=O)CCCCC[C@H](NC(=O)c1cncs1)c1ncc(-c2cc3ccccc3n(C)c2=O)o1` [Compound 110, (S)-N-(1-(5-(1-methyl-2-oxo-1,2-dihydroquinolin-3-yl)oxazol-2-yl)-7-oxononyl)thiazole-5-carboxamide] gave an IC50 [1] of less than 100 nM and an EC50 [2] of 100 to 1000 nM.
Work on `CCC(=O)CCCCC[C@H](NC(=O)CCN(C)C)c1ncc(-c2cc3ccccc3n(C)c2=O)o1` [Compound 106, (S)-3-(dimethylamino)-N-(1-(5-(1-methyl-2-oxo-1,2-dihydroquinolin-3-yl)oxazol-2-yl)-7-oxononyl)propanamide] yielded an IC50 [1] of less than 100 nM and an EC50 [2] of less than 100 nM.
`CCC(=O)CCCCC[C@H](NC(=O)C1(N(C)C)CCCC1)c1ncc(-c2cc3ccccc3n(C)c2=O)o1` [Compound 111, (S)-1-(dimethylamino)-N-(1-(5-(1-methyl-2-oxo-1,2-dihydroquinolin-3-yl)oxazol-2-yl)-7-oxononyl)cyclopentanecarboxamide] gave an IC50 [1] of less than 100 nM and an EC50 [2] of less than 100 nM.
With `CCC(=O)CCCCC[C@H](NC(=O)C1(F)CN(C)C1)c1ncc(-c2cc3ccccc3nc2OC)o1` [Compound 67, (S)-3-fluoro-N-(1-(5-(2-methoxyquinolin-3-yl)oxazol-2-yl)-7-oxononyl)-1-methylazetidine-3-carboxamide] the IC50 [1] was less than 100 nM and the EC50 [2] was greater than 1000 nM.
With `CCC(=O)CCCCC[C@H](NC(=O)Cn1nc(C)nc1C)c1ncc(-c2cc3ccccc3nc2OC)o1` [Compound 80, (S)-2-(3,5-dimethyl-1H-1,2,4-triazol-1-yl)-N-(1-(5-(2-methoxyquinolin-3-yl)oxazol-2-yl)-7-oxononyl)acetamide] the IC50 [1] was less than 100 nM and the EC50 [2] was 100 to 1000 nM.
`CCC(=O)CCCCC[C@H](NC(=O)C1CN(C)C1)c1ncc(-c2cc3ccccc3n(C)c2=O)o1` [Compound 92, (S)-1-methyl-N-(1-(5-(1-methyl-2-oxo-1,2-dihydroquinolin-3-yl)oxazol-2-yl)-7-oxononyl)azetidine-3-carboxamide] gave an IC50 [1] of less than 100 nM, a microsomal CLint at 1 μM [3] of less than 5 µL/min/mg and an AUC ([4]; po 10 mg/kg) of 0.32 µM·h. The Cmax ([4]; po 10 mg/kg) was 100 nM, the microsomal CLint at 1 μM [5] was 15 µL/min/mg and the EC50 [2] was 100 to 1000 nM. For the same molecule, the microsomal CLint at 1 μM [6] was 13 µL/min/mg.
`CCC(=O)CCCCC[C@H](NC(=O)C1CN(C)C1)c1ncc(-c2cc3ccccc3nc2OC)o1` [Compound 2, (S)-N-(1-(5-(2-methoxyquinolin-3-yl)oxazol-2-yl)-7-oxononyl)-1-methylazetidine-3-carboxamide] gave an IC50 [1] of less than 100 nM, a microsomal CLint at 1 μM [3] of 13 µL/min/mg and an AUC ([4]; po 20 mg/kg) of 22.4 µM·h. The Cmax ([4]; po 20 mg/kg) was 1870 nM, the microsomal CLint at 1 μM [5] was 33 µL/min/mg and the EC50 [2] was 100 to 1000 nM. The microsomal CLint at 1 μM [6] was 27 µL/min/mg.
`CCC(=O)CCCCC[C@H](NC(=O)C(C)(C)N(C)C)c1ncc(-c2cc3ccccc3n(C)c2=O)o1` [Compound 107, (S)-2-(dimethylamino)-2-methyl-N-(1-(5-(1-methyl-2-oxo-1,2-dihydroquinolin-3-yl)oxazol-2-yl)-7-oxononyl)propanamide] gave an IC50 [1] of less than 100 nM and an EC50 [2] of less than 100 nM.
Molecule `CCC(=O)CCCCC[C@H](NC(=O)C1CCN(C)CC1)c1ncc(-c2cc3ccccc3n(C)c2=O)o1` [Compound 109, (S)-1-methyl-N-(1-(5-(1-methyl-2-oxo-1,2-dihydroquinolin-3-yl)oxazol-2-yl)-7-oxononyl)piperidine-4-carboxamide] has an IC50 [1] of less than 100 nM and an EC50 [2] of 100 to 1000 nM.
